Reference: patent US9999616B2 (ZENITH EPIGENETICS LTD., priority 2013, dated 2018)
pIC50: −log10 of the molar value.

How the values were obtained:
[1] = target: Brd4 bromodomain 1 (BRD4(1)) (Homo sapiens, UniProt O60885); assay: Inhibition of tetra-acetylated histone H4 binding to Brd4 bromodomain 1, measured by FRET (HTRF); design: made in house; host or cells: E. coli BL21(DE3); conditions: 2 h at room temperature
Outline: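 N-terminally His-tagged bromodomain (200 nM), expressed in E. coli and purified by Ni affinity and size exclusion, was incubated with biotinylated tetra-acetylated H4 peptide (25-50 nM), Eu-cryptate streptavidin and XL665 anti-His in HEPES pH 7.4 buffer with 0.2% DMSO. Reactions ran 2 h at room temperature. IC50 came from the 665/620 nm fluorescence decrease.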

[2] = test system: c-myc in Human AML MV4-11 cells; assay: Inhibition of cMYC expression (mRNA, real-time PCR) in MV4-11 cells; type: cell-based; conditions: 3 h treatment, cMYC mRNA by real-time PCR
Protocol: MV4-11 cells (CRL-9591) were plated at a density of 2.5×10^4 cells per well in 96 well U-bottom plates and treated with increasing concentrations of test compound or DMSO (0.1%) in IMDM media containing 10% FBS and penicillin/streptomycin, and incubated for 3 h at 37′C. Triplicate wells were used for each concentration. Cells were pelleted by centrifugation and harvested using the mRNA Catcher PLUS kit according to manufacturer's instructions. The eluted mRNA isolated was then used in a one-step quantitative real-time PCR reaction, using components of the RNA UltraSense™ One-Step Kit (Life Technologies) together with Applied Biosystems TaqMan® primer-probes for cMYC and Cyclophilin. Real-time PCR plates were run on a ViiA™7 real time PCR machine (Applied Biosystems), data was analyzed, normalizing the Ct values for cMYC to an internal control, prior to determining the fold expression of each sample, relative to the control.

Human AML MV-4-11 cells = assay: Inhibition of cell proliferation in MV4-11 cells (CellTiter Aqueous One); type: cell-based; conditions: for pIC50: MV4-11, 72 h; for Cell Proliferation activity: 72 h
Protocol: MV4-11 cells (CRL-9591) were plated at a density of 5×10^4 cells per well in 96 well flat bottom plates and treated with increasing concentrations of test compound or DMSO (0.1%) in IMDM media containing 10% FBS and penicillin/streptomycin. Triplicate wells were used for each concentration and a well containing only media was used as a control. Plates were incubated at 37° C., 5% CO2 for 72 h before adding 20 µL of the CellTiter Aqueous One Solution (Promega) to each well and incubated at 37° C., 5% CO2 for an additional 3-4 h. The absorbance was read at 490 nm in a spectrophotometer and the percentage of cell titer relative to DMSO-treated cells was calculated after correcting for background by subtracting the blank well's signal. IC50 values were calculated using the GraphPad Prism software.

hIL-6 mRNA = assay: Inhibition of hIL-6 mRNA transcription in LPS-stimulated U937 macrophages; type: cell-based, Human; conditions: 1 h pretreatment, LPS 3 h; for pIC50: Homo sapiens, U-937, PMA-differentiated U937 cells, read-out: IL-6 activity
Protocol: Human leukemic monocyte lymphoma U937 cells (CRL-1593.2) were plated at a density of 3.2×10^4 cells per well in a 96-well plate in 100 μL RPMI-1640 containing 10% FBS and penicillin/streptomycin, and differentiated into macrophages for 3 days in 60 ng/mL PMA ([…]) at 37° C. in 5% CO2 prior to the addition of compound. The cells were pretreated for 1 h with increasing concentrations of test compound in 0.1% DMSO prior to stimulation with 1 ug/mL lipopolysaccharide from Escherichia coli. Triplicate wells were used for each concentration. The cells were incubated at 37° C., 5% CO2 for 3 h before the cells were harvested. At time of harvest, media was removed and cells were rinsed in 200 μL PBS. Cells were harvested using the mRNA Catcher PLUS kit according to manufacturer's instructions. The eluted mRNA was then used in a one-step quantitative real-time PCR reaction using components of the RNA UltraSense™ One-Step Kit (Life Technologies) together with Applied Biosystems TaqMan® primer-probes for hIL-6 and Cyclophilin. Real-time PCR plates were run on a ViiA™7 real time PCR machine (Applied Biosystems), data was analyzed, normalizing the Ct values for hlL-6 to an internal control, prior to determining the fold expression of each sample, relative to the control.

| pIC50 [1] | pIC50 [2] | pIC50 (Human AML MV-4-11 cells) | pIC50 (hIL-6 mRNA) | Structure (SMILES) | Cell Proliferation activity (Human AML MV-4-11 cells) | IL-6 activity (hIL-6 mRNA; PMA-differentiated U937 cells) |
| --- | --- | --- | --- | --- | --- | --- |
| ≥ 6.52 | 5.52 to 6.52 | 5.52 to 6.52 | 5.52 to 6.52 | Cc1noc(C)c1-c1cc(-c2cccc(C#N)c2)c2nc[nH]c2c1 [Example Compound 2, 3-(6-(3,5-dimethylisoxazol-4-yl)-1H-benzo[d]imidazol-4-yl) benzonitrile] |  |  |
| ≥ 6.52 | 4.52 to 5.52 |  | 4.52 to 5.52 | Cc1noc(C)c1-c1cc(Nc2ccccc2)c2nncn2c1 [Example Compound 15, 6-(3,5-dimethylisoxazol-4-yl)-N-phenyl-[1,2,4] triazolo[4,3-a]pyridin-8-amine] | Not active |  |
| ≥ 6.52 | 5.52 to 6.52 | 5.52 to 6.52 | ≥ 6.52 | Cc1noc(C)c1-c1cc(-c2ccnn2C)c2nc[nH]c2c1 [Example Compound 16, 3,5-dimethyl-4-(4-(1-methyl-1H-pyrazol-5-yl)-1H-benzo[d]imidazol-6-yl)isoxazole] |  |  |
| ≥ 6.52 | 5.52 to 6.52 | 5.52 to 6.52 | ≥ 6.52 | Cc1nn(C)cc1-c1cc(-c2c(C)noc2C)cc2[nH]cnc12 [Example Compound 18, 4-(4-(1,3-dimethyl-1H-pyrazol-4-yl)-1H-benzo [d]imidazol-6-yl)-3,5-dimethyl isoxazole] |  |  |
| ≥ 6.52 | 5.52 to 6.52 | 5.52 to 6.52 | ≥ 6.52 | Cc1noc(C)c1-c1cc(-c2cccc3c2cnn3C)c2nc[nH]c2c1 [Example Compound 23, 3,5-dimethyl-4-(4-(1-methyl-1H-indazol-4-yl)-1H-benzo[d]imidazol-6-yl)isoxazole] |  |  |
| ≥ 6.52 | 5.52 to 6.52 | 4.52 to 5.52 | 5.52 to 6.52 | Cc1noc(C)c1-c1cc(NCc2ccccc2)c2nncn2c1 [Example Compound 24, N-benzyl-6-(3,5-dimethylisoxazol-4-yl)-[1,2,4]triazolo[4,3-o]pyridin-8-amine] |  |  |
| 5.52 to 6.52 | 5.52 to 6.52 | 5.52 to 6.52 | 5.52 to 6.52 | COc1ccc(Nc2cc(-c3c(C)noc3C)cc3[nH]cnc23)cc1 [Example Compound 25, 6-(3,5-dimethylisoxazol-4-yl)-N-(4-methoxyphenyl)-1H-benzo[d]imidazol-4-amine] |  |  |
| ≥ 6.52 | 5.52 to 6.52 | 5.52 to 6.52 | ≥ 6.52 | Cc1ncsc1-c1cc(-c2c(C)noc2C)cc2[nH]cnc12 [Example Compound 26, 3,5-dimethyl-4-(4-(4-methylthiazol-5-yl)-1H-benzo[d]imidazol-6-yl)isoxazole] |  |  |
| 5.52 to 6.52 | 5.52 to 6.52 | 5.52 to 6.52 | 5.52 to 6.52 | Cc1noc(C)c1-c1cc(-c2ccccc2CN(C)C)c2nc[nH]c2c1 [Example Compound 28, 1-(2-(6-(3,5-dimethyl-isoxazol-4-yl)-1H-benzo[d]imidazol-4-yl)phenyl)-N,N-dimethyl methanamine] |  |  |
| ≥ 6.52 | 5.52 to 6.52 | 5.52 to 6.52 | 5.52 to 6.52 | Cc1noc(C)c1-c1cc(Nc2cccc(F)c2)c2nc[nH]c2c1 [Example Compound 32, 6-(3,5-dimethyl-isoxazol-4-yl)-N-(3-fluorophenyl)-1H-benzo[d] imidazol-4-amine] |  |  |
| ≥ 6.52 | 5.52 to 6.52 | 5.52 to 6.52 | 5.52 to 6.52 | COc1cccc(Nc2cc(-c3c(C)noc3C)cc3[nH]cnc23)c1 [Example Compound 33, 6-(3,5-dimethyl-isoxazol-4-yl)-N-(3-methoxy-phenyl)-1H-benzo[d] imidazol-4-amine] |  |  |
| ≥ 6.52 | 5.52 to 6.52 | 5.52 to 6.52 | 5.52 to 6.52 | Cc1noc(C)c1-c1cc(-c2c(C)noc2C)c2nc(C(F)(F)F)[nH]c2c1 [Example Compound 34, 4,4′-(2-(trifluoromethyl)-1H-benzo[d]imidazole-4,6-diyl)bis(3,5-dimethylixaole)] |  |  |
| ≥ 6.52 | 5.52 to 6.52 | 5.52 to 6.52 | 5.52 to 6.52 | Cc1noc(C)c1-c1cc(NCc2cccnc2)c2nc[nH]c2c1 [Example Compound 35, 6-(3,5-dimethyl-isoxazol-4-yl)-N-(pyridin-3-ylmethyl)-1H-benzo[d] imidazol-4-amine] |  |  |
| ≥ 6.52 | 5.52 to 6.52 | 5.52 to 6.52 | 5.52 to 6.52 | Cc1noc(C)c1-c1cc(-c2cccc(C(N)=O)c2)c2nc[nH]c2c1 [Example Compound 36, 3-(6-(3,5-dimethyl-isoxazol-4-yl)-1H-benzo[d]imidazol-4-yl)benzamide] |  |  |
| ≥ 6.52 | 5.52 to 6.52 | 5.52 to 6.52 | 5.52 to 6.52 | Cc1noc(C)c1-c1cc(NCc2ccc(F)cc2)c2nc[nH]c2c1 [Example Compound 38, 6-(3,5-dimethyl-isoxazol-4-yl)-N-(4-fluorobenzyl)-1H-benzo[d] imidazol-4-amine] |  |  |
| 5.52 to 6.52 | 5.52 to 6.52 | 5.52 to 6.52 | 5.52 to 6.52 | Cc1conc1Nc1cc(-c2c(C)noc2C)cc2[nH]cnc12 [Example Compound 44, N-(6-(3,5-dimethyl-isoxazol-4-yl)-1H-benzo[d]imidazol-4-yl)-4-methyl-isoxazol-3-amine] |  |  |
| ≥ 6.52 | 5.52 to 6.52 | 5.52 to 6.52 | 5.52 to 6.52 | COc1ccc(C)cc1-c1cc(-c2c(C)noc2C)cc2[nH]cnc12 [Example Compound 51, 4-(4-(2-methoxy-5-methyl-phenyl)-1H-benzo[d]midazol-6-yl)-3,5-dimethyl isoxazole] |  |  |
| ≥ 6.52 | 5.52 to 6.52 | 5.52 to 6.52 | 5.52 to 6.52 | Cc1nc2c(-c3csnc3C)cc(-c3c(C)noc3C)cc2[nH]1 [Example Compound 52, 3,5-dimethyl-4-(2-methyl-7-(3-methyliso-thiazol-4-yl)-1H-benzo[d]imidazol-5-yl)isoxazole] |  |  |
| ≥ 6.52 | 5.52 to 6.52 | 5.52 to 6.52 | ≥ 6.52 | Cc1nc2c(-c3cnccc3C)cc(-c3c(C)noc3C)cc2[nH]1 [Example Compound 53, 3,5-dimethyl-4-(2-methyl-4-(4-methyl-pyridin-3-yl)-1H-benzo[d]imidazol-6-yl)isoxazole] |  |  |
| 5.52 to 6.52 |  | 4.52 to 5.52 | 5.52 to 6.52 | Cc1nc2c(NC(=O)c3ccccc3)cc(-c3c(C)noc3C)cc2[nH]1 [Example Compound 165, N-(6-(3,5-dimethyl-isoxazol-4-yl)-2-methyl-1H-benzo[d]imidazol-4-yl)benzamide] |  |  |
| ≥ 6.52 |  |  |  | Cc1nc2c(Oc3cc(C(=O)O)ccc3C)cc(-c3c(C)noc3C)cc2[nH]1 [Example Compound 175, 3-((6-(3,5-dimethylisoxazol-4-yl)-2-methyl-1H-benzo[d]imidazol-4-yl)oxy)-4-methylbenzoic acid] | Not active | Not active |
| ≥ 6.52 | ≥ 6.52 |  | 5.52 to 6.52 | Cc1ccc(C#N)cc1-c1cc(-c2c(C)noc2C)cc2[nH]c(N3CCCC3)nc12 [Example Compound 215, 3-(6-(3,5-dimethylisoxazol-4-yl)-2-(pyrrolidin-1-yl)-1H-benzo[d]imidazol-4-yl)-4-methylbenzonitrile] |  |  |
| ≥ 6.52 | 5.52 to 6.52 |  | ≥ 6.52 | Cc1noc(C)c1-c1cc(-c2cccc(C#N)c2C)c2nc(NC3CCN(C)CC3)[nH]c2c1 [Example Compound 216, 3-(6-(3,5-dimethyl-isoxazol-4-yl)-2-((1-methyl-piperidin-4-yl)amino)-1H-benzo[d]imidazol-4-yl)-2-methyl benzonitrile] |  |  |
